Patent publication USRE43000E1, “Artificial riboswitch for controlling pre-mRNA splicing” (City of Hope, priority 2005, dated 2011)

Tested on: pAdML-Theo29AG-EGFP reporter in HEK293 cells
Assay: GFP splicing reporter in HEK293 cells (fluorescence microscopy, RT-PCR)
Format: cell-based
Parameters: GFP expression of cells transfected with pAdML-Theo29AG-EGFP: dose or concentration left out as unconfirmed
Excerpt: Controlling gene expression in living cells through theophylline-RNA interaction. […] To determine if such an approach could also regulate gene expression in living cells, a splicing reporter was constructed in which the cDNA of AdML-Theo29AG pre-mRNA was inserted into the 5′ UTR of green fluorescence protein (GFP) cDNA. It was contemplated that theophylline mediated inhibition of AdML-Theo29AG splicing will prevent the export of GFP mRNA which will be mirrored by the lack of GFP expression. The reporter plasmid was constructed by standard molecular cloning approach. In brief, a PCR amplified DNA fragment containing the entire AdML-Theo29AG sequence was cloned into the EcoRI/Sal I digested expression vector (pEGFP-N1, Invitrogen). The resulting reporter plasmid, pAdML-Theo29AG-EGFP, contains the cDNA of AdML-Theo29AG pre-mRNA fused 5′ to the GFP coding sequence.
To examine theophylline-mediated regulation of AdML-Theo29AG splicing, HEK293 cells were transfected with pAdML-Theo29AG-EGFP reporter using polyfectin following manufacturer's instructions (Qiagen). Cells were grown and maintained in a humidified atmosphere at 37° C. under 5% CO2 in Dulbecco's Modified Eagle Medium (Cellgro) supplemented with 10% fetal bovine serum and antibiotics (100 μg/ml streptomycin and 100 U/ml penicillin). For transfection, cells (3×10^4, per well) were seeded in a 24 well plate and incubated for 24 h (50-80% confluency) at which time pAdML-Theo29AG-EGFP or pEGFP-N1 was introduced. After 10 hours of incubation, cells were treated with buffer or theophylline ([…]) and incubation was continued up to 48 hours. The GFP expression was visualized with a fluorescence microscope and cells were photographed with color CCD camera (Olympus).
An RT-PCR assay was performed to confirm that theophylline-mediated reduction of GFP expression is due to the inhibition of AdML-Theo29AG-EGFP splicing and not the result of mRNA degradation. Total RNA was isolated (from 3×10^4 cells) using trizol reagent. In a total volume of 20 μl, 5 μg of total RNA was reverse transcribed (RT) using vector specific reverse primer (GFPR, 5′-[…]-3′) according to manufacturer's instructions (Invitrogen Kit). Next, an aliquot (2 μl) of RT product was subjected to PCR amplification in a 50 μl reaction using 2.5 units of Taq polymerase, vector specific forward (GFPF, 5′-[…]-3′) and reverse primer (GFPR, 5′-[…]-3′). The amplified product was analyzed on a 2% agarose gel. […] Unlike the untreated control, which generated ˜250 bp fragment, theophylline treated cell yielded a PCR product corresponding to the size of unspliced RNA (˜350-bp).

Cn1c(=O)c2[nH]cnc2n(C)c1=O [theophylline]
splicing of AdML-Theo29AG-EGFP pre-mRNA by RT-PCR (HEK293): repressed the splicing
GFP expression of cells transfected with control plasmid pEGFP-N1 (HEK293, control plasmid): virtually no effect
GFP expression of cells transfected with pAdML-Theo29AG-EGFP (HEK293, theophylline, up to 48 hours): dose dependent decrease in GFP expression
theophylline concentration sufficient to inhibit pre-mRNA splicing (FIG. 11) (living cells): 0.1 to 0.5 mM
